According to US10294202B2, “Pyrrolidinones as herbicides” (FMC Corporation, priority 2013, dated 2019):

Columns and labels:
wheat (winter wheat) = test: Test C pre-/postemergence herbicide test; format: in vivo, Triticum aestivum
In short: (§1)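 Greenhouse pots; formulation = non-phytotoxic solvent mix + surfactant. PRE onto seeds in loam:sand; POST at 1–4 leaves (2–18 cm) in peat moss/vermiculite medium. Read-out: visual % control vs untreated, day 13–15.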

galium = test: Test C pre-/postemergence herbicide test; format: in vivo, Galium aparine; settings: Preemergence
In short: as §1

foxtail, giant = test: Test C pre-/postemergence herbicide test; format: in vivo, Setaria faberii
In short: as §1

corn [1] = test: Test A pre-/postemergence herbicide test; format: in vivo, Zea mays; settings: Postemergence
In short: (§2)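 Greenhouse pot test with pre- and postemergence application of surfactant-containing solvent formulations. Postemergence plants were 2–10 cm, one- to two-leaf stage. Response scored visually after ~10 days, 0 (no effect) to 100 (complete control).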

johnsongrass = test: Test C pre-/postemergence herbicide test; format: in vivo, Sorghum halepense
In short: as §1

morningglory = test: Test C pre-/postemergence herbicide test; format: in vivo, Ipomoea coccinea
In short: as §1

soybean = test: Test C pre-/postemergence herbicide test; format: in vivo, Glycine max
In short: as §1

ryegrass, Italian = test: Test C pre-/postemergence herbicide test; format: in vivo, Lolium multiflorum
In short: as §1

wheat = test: Test A pre-/postemergence herbicide test; format: in vivo, Triticum aestivum; settings: Postemergence
In short: as §2

crabgrass, large = test: Test C pre-/postemergence herbicide test; format: in vivo, Digitaria sanguinalis
In short: as §1

barnyardgrass = test: Test A pre-/postemergence herbicide test; format: in vivo, Echinochloa crus-galli
In short: as §2

pigweed = test: Test A pre-/postemergence herbicide test; format: in vivo, Amaranthus retroflexus
In short: as §2

corn [2] = test: Test C pre-/postemergence herbicide test; format: in vivo, Zea mays
In short: as §1

[3] = Postemergence, 31 g ai/ha, scale 0 to 100 (0 no effect, 100 complete control)
[4] = Postemergence, 62 g ai/ha, scale 0 (no effect) to 100 (complete control)
[5] = Postemergence, 125 g ai/ha, scale 0 to 100 (0 no effect, 100 complete control)
[6] = Postemergence, 250 g ai/ha, scale 0 to 100 (0 no effect, 100 complete control)
[7] = Preemergence, 62 g ai/ha, scale 0 to 100 (0 no effect, 100 complete control)
[8] = Preemergence, 125 g ai/ha, scale 0 to 100
[9] = Preemergence, 31 g ai/ha, scale 0 to 100, 0 is no effect and 100 is complete control
[10] = 125 g ai/ha, visual rating on 0 to 100 scale (0 no effect, 100 complete control), approx. 10 days
[11] = 500 g ai/ha, 0 to 100 scale (0 no effect, 100 complete control)
[12] = Postemergence, 125 g ai/ha, visual rating on 0 to 100 scale (0 no effect, 100 complete control), approx. 10 days
[13] = Postemergence, 500 g ai/ha, 0 to 100 scale (0 no effect, 100 complete control)
[14] = Preemergence, 125 g ai/ha, 0 to 100 scale where 0 is no effect and 100 is complete control
[15] = Preemergence, 500 g ai/ha, visual rating on 0 to 100 scale (0 no effect, 100 complete control)

## Cc1cccc(NC(=O)C2C(=O)NCC2c2cccc(C(F)(F)F)c2)c1 (centres unmarked) [Compound 317]
Wheat (winter wheat); [3]
  Plant response rating, Wheat: 0
Wheat (winter wheat); [4]
  Plant response rating, Wheat: 0
Wheat (winter wheat); [5]
  Plant response rating, Wheat: 0
Wheat (winter wheat); [6]
  Plant response rating, Wheat: 0
Wheat (winter wheat); [7]
  Wheat plant response rating: 0
Wheat (winter wheat); [8]
  Plant response rating, Wheat: 0
galium; 31 g ai/ha, scale 0 to 100, 0 is no effect and 100 is complete control
  Galium plant response rating: 0
galium; 62 g ai/ha, scale 0 to 100 (0 no effect, 100 complete control)
  Galium plant response rating: 0
galium; 125 g ai/ha, scale 0 to 100
  Plant response rating, Galium: 0
galium; 250 g ai/ha
  Plant response rating (scale of 0 to 100), Galium: 0
foxtail, giant; [3]
  Plant response rating, Foxtail, Giant: 0
foxtail, giant; [4]
  Plant response rating, Foxtail, Giant: 0
foxtail, giant; [5]
  Plant response rating, Foxtail, Giant: 0
foxtail, giant; [6]
  Plant response rating, Foxtail, Giant: 50
foxtail, giant; [9]
  Foxtail, Giant plant response rating: 80
foxtail, giant; [7]
  Foxtail, Giant plant response rating: 90
foxtail, giant; [8]
  Plant response rating, Foxtail, Giant: 90
foxtail, giant; Preemergence, 250 g ai/ha
  Plant response rating (scale of 0 to 100), Foxtail, Giant: 95
Corn [1]; [10]
  Plant response rating, Corn: 0
Corn [1]; [11]
  Plant response rating, Corn: 20
johnsongrass; [3]
  Plant response rating, Johnsongrass: 0
johnsongrass; [4]
  Plant response rating, Johnsongrass: 0
johnsongrass; [5]
  Plant response rating, Johnsongrass: 0
johnsongrass; [6]
  Plant response rating, Johnsongrass: 5
johnsongrass; [9]
  Johnsongrass plant response rating: 0
johnsongrass; [7]
  Johnsongrass plant response rating: 0
johnsongrass; [8]
  Plant response rating, Johnsongrass: 0
johnsongrass; Preemergence, 250 g ai/ha
  Plant response rating (scale of 0 to 100), Johnsongrass: 30
morningglory; [3]
  Plant response rating, Morningglory: 0
morningglory; [4]
  Plant response rating, Morningglory: 0
morningglory; [5]
  Plant response rating, Morningglory: 0
morningglory; [6]
  Plant response rating, Morningglory: 10
morningglory; [9]
  Morningglory plant response rating: 25
morningglory; [7]
  Morningglory plant response rating: 0
morningglory; [8]
  Plant response rating, Morningglory: 0
morningglory; Preemergence, 250 g ai/ha
  Plant response rating (scale of 0 to 100), Morningglory: 0
soybean; [3]
  Plant response rating, Soybean: 0
soybean; [4]
  Plant response rating, Soybean: 0
soybean; [5]
  Plant response rating, Soybean: 0
soybean; [6]
  Plant response rating, Soybean: 0
soybean; [7]
  Soybean plant response rating: 0
soybean; [8]
  Plant response rating, Soybean: 0
ryegrass, Italian; [3]
  Plant response rating, Ryegrass, Italian: 0
ryegrass, Italian; [4]
  Plant response rating, Ryegrass, Italian: 0
ryegrass, Italian; [5]
  Plant response rating, Ryegrass, Italian: 0
ryegrass, Italian; [6]
  Plant response rating, Ryegrass, Italian: 0
ryegrass, Italian; [7]
  Ryegrass, Italian plant response rating: 0
ryegrass, Italian; [8]
  Plant response rating, Ryegrass, Italian: 0
wheat; [10]
  Plant response rating, Wheat: 0
wheat; [11]
  Plant response rating, Wheat: 20
crabgrass, large; [3]
  Plant response rating, Crabgrass, Large: 0
crabgrass, large; [4]
  Plant response rating, Crabgrass, Large: 25
crabgrass, large; [5]
  Plant response rating, Crabgrass, Large: 45
crabgrass, large; [6]
  Plant response rating, Crabgrass, Large: 50
crabgrass, large; [9]
  Crabgrass, Large plant response rating: 95
crabgrass, large; [7]
  Crabgrass, Large plant response rating: 95
crabgrass, large; [8]
  Plant response rating, Crabgrass, Large: 95
crabgrass, large; Preemergence, 250 g ai/ha
  Plant response rating (scale of 0 to 100), Crabgrass, Large: 98
barnyardgrass; [12]
  Plant response rating, Barnyardgrass: 80
barnyardgrass; [13]
  Plant response rating, Barnyardgrass: 90
barnyardgrass; [14]
  Plant response rating, Barnyardgrass: 90
barnyardgrass; [15]
  Barnyardgrass plant response rating: 90
pigweed; [12]
  Plant response rating, Pigweed: 0
pigweed; [13]
  Plant response rating, Pigweed: 0
pigweed; [14]
  Plant response rating, Pigweed: 0
pigweed; [15]
  Pigweed plant response rating: 0
Corn [2]; [3]
  Plant response rating, Corn: 0
Corn [2]; [4]
  Plant response rating, Corn: 0
Corn [2]; [5]
  Plant response rating, Corn: 0
Corn [2]; [6]
  Plant response rating, Corn: 0
Corn [2]; [9]
  Corn plant response rating: 0
Corn [2]; [7]
  Corn plant response rating: 0
Corn [2]; [8]
  Plant response rating, Corn: 25
Corn [2]; Preemergence, 250 g ai/ha
  Plant response rating (scale of 0 to 100), Corn: 30
